Experimental data as given in article PMC10859675, “Short‐chain mono‐carboxylates as negative modulators of allosteric transitions in Gloeobacter violaceus ligand‐gated ion channel, and impact of a pre‐β5 strand (Loop Ω) double mutation on crotonate, not butyrate effect” (Physiological Reports, 2024).
Where “and” joins values, the source holds several entries; their conditions need not be identical. Equal entries are not always repeated. Where two headings read alike, the source gives them in different places.

Columns and labels:
WT GLIC [1] = target: T1, WT GLIC (Gloeobacter violaceus, UniProt Q7NDN8); test: Whole-cell patch-clamp, protocol with pre-stimulation at low pHo, WT GLIC expressed in tk-ts13 cells; type: cell-based
T1 construct: expressed in transfected cells; host or cells: tk-ts13 cells, GLIC DNA in pMT3 vector
T1 sequence (Q7NDN8 44-359): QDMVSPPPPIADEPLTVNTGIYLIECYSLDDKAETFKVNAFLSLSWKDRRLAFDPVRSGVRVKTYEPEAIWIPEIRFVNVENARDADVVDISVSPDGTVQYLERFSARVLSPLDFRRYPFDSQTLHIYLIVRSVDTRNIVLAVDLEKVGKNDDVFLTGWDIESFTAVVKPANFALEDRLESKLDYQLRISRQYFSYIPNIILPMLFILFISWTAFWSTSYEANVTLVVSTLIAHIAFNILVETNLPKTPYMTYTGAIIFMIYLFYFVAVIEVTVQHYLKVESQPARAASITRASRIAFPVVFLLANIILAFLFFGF
Experimental: We give here the main points and some differences.
All solutions were prepared from the acid forms of the buffers/acido‐basic compounds (BAPTA, HEPES, MES, CBX, etc.). Stock 100 mmol/L (mM) mono‐CBX water solutions were prepared directly at pH 5 (NaOH/HCl), aliquoted and kept at −20°C.
Fit of concentration‐effect curves. For proton activation curves, the peak value (Ipk[pHo]; inward current value at maximal absolute value) within 30 s was considered (y), and a plot against H^+ activity value (x) was fitted with a 3‐parameter Hill equation: y=ymax*1/1+EC50nH/x^nH , giving I max, EC50, and pH50 = −log(EC50). For potentiation/inhibition, data for [percent of control current] in the presence of the compound (y = 100*I CBX/I CONTROL) to [compound concentration value] […] For most compounds are presented: a fit of the mean of data (Graphs), and the mean ± standard deviation (SD) of data from individual cells (values in text).

WT GLIC [2] = target: T1, WT GLIC; test: Whole-cell patch-clamp, direct protocol (pHo jump and compound applied simultaneously), WT GLIC in tk-ts13 cells; type: cell-based; conditions: 1 mM at pHo 5.0, direct protocol, individual cells
Text: A direct protocol, where a pHo‐jump (from control pHo 7.5) and compound addition are applied simultaneously, was first used to examine the influence of saturated, short‐chain mono‐CBX compounds on low pHo‐induced GLIC current (Figure 1a).

[3] = SUCCIN 10 mM at pHo 5.0, without ACET, after ACET 1 mM 50 s, one cell
[4] = 5 or 10 mM, pre-stimulation at pHo 5.0, 2–5 cells each

For `CCC(=O)O` [PROPION, Propanoic acid], the “activity on GLIC current (NAM effect)” value (WT GLIC [1]; 1 mM with pre-stimulation, pHo 5.0) was “active”, the “reversibility of negative modulation (slow components)” value (WT GLIC [1]; after compound wash-out) was 3 to 10 min and the “slope parameter nH (from individual cells)” value (WT GLIC [1]; pHo 5.5, mean ± SD) was 1.1. For the same compound, the IC50 (WT GLIC [1]; pHo 5.5, mean ± SD, read-out: IC50 (from individual cells)) was 204 µM, the “ratio of peak current values in the presence and in the absence of compound (Ipk[CBX@5.0]/Ipk[pHo 5.0])” value (WT GLIC [2]; first CBX application) was 0.380 and the “current decay (h) time constant” value (WT GLIC [2]; m^4 h fit) was 0.000408 h.

With `O=C(O)CCC(=O)O` [SUCCIN, Butanedioic acid] the “current in the presence of di-CBX, % of control” value (WT GLIC [1]; 10 mM at pHo 5.0, mean) was 142 % of control, the “GLIC current with SUCCIN after ACET plateau, % of control current recorded immediately before ACET” value (WT GLIC [1]; [3]) was 143 % of control and the “GLIC current with SUCCIN after ACET plateau, % of current recorded in the presence of ACET” value (WT GLIC [1]; [3]) was 2170 % of ACET current. For the same compound, the “peak SUCCIN current (co-application with ACET), % of control current recorded immediately before ACET” value (WT GLIC [1]; SUCCIN 10 mM co-applied with ACET 1 mM, pHo 5.0, after 90, 120, 180 s of ACET, individual cells) was 132 % of control and 28 % of control and 44 % of control and the “peak SUCCIN current (co-application with ACET), % of ACET current” value (WT GLIC [1]; SUCCIN 10 mM co-applied with ACET 1 mM, pHo 5.0, individual cells) was 753 % of ACET current and 505 % of ACET current and 392 % of ACET current.

Work on `CCCCC(=O)O` [VALER, Pentanoic acid] yielded an IC50 (WT GLIC [1]; IC50 (from individual cells), pHo 5.0, mean ± SD) of 289 µM.

`O=C(O)CC(O)(CC(=O)O)C(=O)O` [citrate] was tested, and the “effect on GLIC current” value (WT GLIC [1]; citrate used as buffer, conditions not given) was “no effect”.

With `NCC(=O)O` [glycine] the “effect on GLIC current” value (WT GLIC [1]; [4]) was “no effect”.

`CC(=O)C(=O)O` [pyruvate] was tested, and the “effect on GLIC current” value (WT GLIC [1]; [4]) was “no effect”.

For `NCCC(=O)O` [β‐alanine], the “effect on GLIC current” value (WT GLIC [1]; [4]) was “no effect”.

In the case of phosphate, the “effect on GLIC activity” value (WT GLIC [1]; 1 and 10 mM at pH 5.0, extracellular solution without CaCl2, n = 4 cells) is reported as “no effect”.
